What was measured:
CAKI-1 = assay: Cytotoxicity against human Caki1 cells after 48 hrs by sulforhodamine B assay; format: functional; details: CAKI-1, 48 h
[1] = Cytotoxicity against human NCI60 cells after 48 hrs by sulforhodamine B assay; format: functional; details: NCI60, 48 h, read-out: pTGI (converted)
T47D = assay: Cytotoxicity against human T47D cells after 48 hrs by sulforhodamine B assay; format: functional
NCI-H226 = assay: Cytotoxicity against human NCI-H226 cells after 48 hrs by sulforhodamine B assay; format: functional; details: NCI-H226, 48 h
MCF7 = assay: Cytotoxicity against human MCF7 cells after 48 hrs by sulforhodamine B assay; format: functional; details: MCF7, 48 h
MDA-MB-231 = assay: Cytotoxicity against human MDA-MB-231 cells after 48 hrs by sulforhodamine B assay; format: functional; details: MDA-MB-231, 48 h
HOP-92 = assay: Cytotoxicity against human HOP92 cells after 48 hrs by sulforhodamine B assay; format: functional; details: HOP-92, 48 h
MDA-MB-468 = assay: Cytotoxicity against human MDA-MB-468 cells after 48 hrs by sulforhodamine B assay; format: functional; details: MDA-MB-468, 48 h
PC-3 = assay: Cytotoxicity against human PC3 cells after 48 hrs by sulforhodamine B assay; format: functional; details: PC-3, 48 h
[2] = Cytotoxicity against human NCI60 cells assessed as cell growth at 10 uM after 48 hrs by sulforhodamine B assay; format: functional; details: NCI60, 48 h, read-out: Activity
[3] = Toxicity in ip dosed athymic mouse assessed as lethality administered as single dose measured after 2 weeks; format: organism-based; details: in vivo
BT-549 = assay: Cytotoxicity against human BT549 cells after 48 hrs by sulforhodamine B assay; format: functional; details: BT-549, 48 h
EKVX = assay: Cytotoxicity against human EKVX cells after 48 hrs by sulforhodamine B assay; format: functional
TK-10 = assay: Cytotoxicity against human TK10 cells after 48 hrs by sulforhodamine B assay; format: functional; details: TK-10, 48 h
[4] = Toxicity in ip dosed athymic mouse assessed as body weight loss administered as single dose measured after 2 weeks; format: organism-based; details: in vivo
SF-295 = assay: Cytotoxicity against human SF295 cells after 48 hrs by sulforhodamine B assay; format: functional; details: SF-295, 48 h

Work on `Cc1cc(Cl)ccc1Nc1nc(C(F)(F)F)ccc1C(=O)N/N=C/c1c(Cl)cccc1Cl` yielded a GI50 (CAKI-1) of 12.6 nM, a CC50 (CAKI-1; read-out: pLC50 (the source's name) (converted)) of 43700 nM and a TGI (CAKI-1; read-out: pTGI (converted)) of 324 nM. It also gave a TGI [1] of 11700 nM, a GI50 (T47D) of 224 nM and a TGI (T47D; read-out: pTGI (converted)) of 794 nM. It also gave a GI50 (NCI-H226) of 135 nM, a TGI (NCI-H226; read-out: pTGI (converted)) of 525 nM and a GI50 (MCF7) of 234 nM. The TGI (MCF7; read-out: pTGI (converted)) was 741 nM, the GI50 (MDA-MB-231) was 155 nM and the TGI (MDA-MB-231; read-out: pTGI (converted)) was 851 nM. For the same molecule, the GI50 (HOP-92) was 191 nM, the TGI (HOP-92; read-out: pTGI (converted)) was 537 nM and the GI50 (MDA-MB-468) was 275 nM. It also gave a TGI (MDA-MB-468; read-out: pTGI (converted)) of 851 nM, a GI50 (PC-3) of 229 nM and a TGI (PC-3; read-out: pTGI (converted)) of 871 nM. For the same molecule, the growth at 10 µM [2] was -6.89%, the MTD at 336 h [3] was 400 mg/kg and the GI50 (BT-549) was 195 nM. The TGI (BT-549; read-out: pTGI (converted)) was 676 nM, the GI50 (EKVX) was 195 nM and the TGI (EKVX; read-out: pTGI (converted)) was 708 nM. For the same molecule, the GI50 (TK-10) was 224 nM, the TGI (TK-10; read-out: pTGI (converted)) was 794 nM and the MTD at 336 h [4] was 400 mg/kg. It also gave a GI50 (SF-295) of 24 nM and a TGI (SF-295; read-out: pTGI (converted)) of 295 nM.

From ChEMBL document CHEMBL1152547, “Synthesis and evaluation of anticancer activity of 2-arylamino-6-trifluoromethyl-3-(hydrazonocarbonyl)pyridines” (Bioorg Med Chem, 2009)
